Assay results: patent US20250257095A1, “METHOD FOR VISIBLE LIGHT-MEDIATED CHEMICAL MODIFICATION OF POLYPEPTIDE AND PROTEIN BASED ON CYSTEINE” (SHANGHAI JIAO TONG UNIVERSITY, priority 2022, published 2025)

Assay: Plasma stability test (incubation in plasma at 37° C., LC-MS/MS)
Format: in vitro ADME
Conditions: 2 h later; for metabolised at 2 h, 5 μg/mL: read-out: compound degraded in plasma
Procedure: About 3 μL of a 500 μg/mL compound was taken and added to 297 μL of plasma. Incubation was conducted at 37° C. for 0 h to 3 h. 20 μL of a sample was collected at 1 min, 10 min, 30 min, 60 min, and 120 min. Then 100 μL of acetonitrile was added to precipitate proteins. Then 1 μL of a sample was collected and tested by liquid chromatography-tandem triple quadrupole mass spectrometer (LC-MS/MS) to determine a downward response of the compound in the plasma. The stability of the compound in the plasma could be quantified through plotting.

SMILES | compound degraded in plasma | metabolised at 2 h, 5 μg/mL [%]
COC(=O)[C@H](CCC(=O)c1ccccc1)NC(=O)[C@H](Cc1ccccc1)NC(=O)OC(C)(C)C [DP-04] | not observed | –
COC(=O)[C@H](CCC(=O)c1ccccc1)NC(=O)[C@H](CCCCNC(=O)OC(C)(C)C)NC(=O)OCc1ccccc1 [DP-11] | not observed | –
CCN1C(=O)CC(SC[C@@H](NC(=O)[C@@H](Cc2ccccc2)NC(=O)OC(C)(C)C)C(=O)O)C1=O (stereo partly shown) [compound 1] | – | ~14
CCN1C(=O)CC(SC[C@@H](NC(=O)[C@@H](CCCCNC(=O)OC(C)(C)C)NC(=O)OCc2ccccc2)C(=O)O)C1=O (stereo partly shown) [compound 2] | – | ~1.5
